This is an account of results in patent US10941157B2, “Pesticidal compositions and uses thereof” (Gilead Apollo, LLC, priority 2015, dated 2021).

The subject of one assay is Botrtyis cinerea (Bc). The assay can be described thus: In vitro pathogen growth inhibition assay, Bc. As to conditions: 48 h, ≥90% growth inhibition; 48 hours; vs 2% DMSO control; read-out: Compound Concentration (ppm) sufficient for ≥90% inhibition of Bc. In kind it is cell-based. A digest of the protocol: (§1)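 Value reported is the compound concentration reaching ≥90% growth inhibition, from OD readings at 24 and 48 h after blank subtraction, confirmed visually. Inoculum was spores diluted in 17% V8 medium, except Rs, using 1.5 mm mycelial plugs in ¼ PDB; actual compound concentration corrected via OD600.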

Assay [1] has as its system Collectotrichum graminicola (Cg). Briefly: In vitro pathogen growth inhibition assay, Cg. The class given is cell-based. As to conditions: 48 h, ≥90% growth inhibition; 48 hours; vs 2% DMSO control; read-out: Compound Concentration (ppm) sufficient for ≥90% inhibition of Cg. A digest of the protocol:
as §1

For another assay, the system named is Diplodia maydis (Dm). The assay can be described thus: In vitro pathogen growth inhibition assay, Dm. In kind it is cell-based. As to conditions: Stenocarpella maydis, 48 h, ≥90% growth inhibition; 48 hours; vs 2% DMSO control; read-out: Compound Concentration (ppm) sufficient for ≥90% inhibition of Dm. Put shortly: (§2)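 Spores of Dm, Fv and Pc were diluted in 17% V8 liquid medium; Rs used 1.5 mm mycelial plugs in ¼ PDB. Compounds from 2.5 mg/ml DMSO stocks were combined with inoculum, growth was read by OD600 at 24 and 48 h with blank subtraction, and the reported value is the concentration giving ≥90% inhibition.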

Assay [2] relates to Fusarium moniliforme (Fm). Briefly: In vitro pathogen growth inhibition assay, Fm. In kind it is cell-based. As to conditions: Fusarium verticillioides; ≥90% growth inhibition; 48 hours; vs 2% DMSO control; read-out: Compound Concentration (ppm) sufficient for ≥90% inhibition of Fm. A digest of the protocol:
as §1

The test system of assay [3] is Fusarium virguliforme (Fv). Briefly: In vitro pathogen growth inhibition assay, Fv. The class given is cell-based. As to conditions: ≥90% growth inhibition, 48 hours, vs 2% DMSO control, read-out: Compound Concentration (ppm) sufficient for ≥90% inhibition of Fv. Put shortly:
as §2

Assay [4] concerns Phytophthora capsici (Pc). Briefly: In vitro pathogen growth inhibition assay, Pc. The class given is cell-based. As to conditions: 48 h, ≥90% growth inhibition, 48 hours, vs 2% DMSO control, read-out: Compound Concentration (ppm) sufficient for ≥90% inhibition of Pc. Put shortly:
as §2

The subject of a further assay is Rhizoctonia solani (Rs). Briefly: In vitro pathogen growth inhibition assay, Rs (mycelial plugs). The class given is cell-based. As to conditions: Rhizoctonia solani, 48 h, ≥90% growth inhibition; mycelial plugs; 48 hours; vs 2% DMSO control; read-out: Compound Concentration (ppm) sufficient for ≥90% inhibition of Rs. A digest of the protocol: as §2
In a further assay the test system is Septoria tritici (St). Briefly: In vitro pathogen growth inhibition assay, St. The class given is cell-based. As to conditions: Zymoseptoria tritici, 48 h, ≥90% growth inhibition; 48 hours; vs 2% DMSO control; read-out: Compound Concentration (ppm) sufficient for ≥90% inhibition of St. A digest of the protocol:
as §1

In assay [5] the test system is Blumeria graminis f. sp. hordei. The assay can be described thus: Foliar protection test for barley powdery mildew control. The class given is in vivo. As to conditions: foliar spray on Hordeum vulgare cv. Perry, inoculated 24 hours after treatment, evaluated 7 days later. A digest of the protocol:
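Protective foliar test: compound atomized onto both leaf surfaces of 6-day-old Hordeum vulgare cv. Perry, followed after 24 h by spore-cloud inoculation from colonized untreated plants. Disease rated on leaves 7 days on, plants held at 20 to 22° C and 70% RH.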

The subject of a further assay is Sphaerotheca fuliginea. The assay can be described thus: Foliar protection for cucumber powdery mildew control. In kind it is in vivo. As to conditions: foliar spray on Cucumis sativus cv. Straight Eight, inoculated 24 hours after treatment, evaluated 7 days later. Put shortly: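 Protective foliar spray on 10-day-old Straight Eight cucumbers, with S. fuliginea spores dusted from infected stock plants 24 h after treatment. Disease developed at 23–27 °C, 60% RH and a 16 h photoperiod. Leaves were rated for mildew growth after 7 days; test rates 10 ppm or below.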

Assay [6] concerns Mycosphaerella graminicola (synthetic Septoria tritici). Briefly: Foliar protection test for wheat septoria leaf blotch control. In kind it is in vivo. As to conditions: foliar spray on Triticum aestivum cv. WinterHawk, inoculated 1 hour after treatment, evaluated 16 days later.
Assay [7] deals with Fusarium graminearum. The class given is in vivo. As to conditions: spray on flowering Triticum aestivum cv. Samson, inoculated 24 hours after treatment, evaluated 14 days later.
For a further assay, the system named is Puccinia triticina. The assay can be described thus: Foliar protection test for wheat leaf rust control. The class given is in vivo. As to conditions: foliar application to wheat (Triticum aestivum cv. Winterhawk), evaluated 10 days later.
In a further assay the test system is Phakopsora pachyrhizi. Briefly: Foliar protection test for Asian soybean rust control. The class given is in vivo. As to conditions: foliar application to soybean (Glycine max AG4832), percent disease area evaluated 14 days later.
For assay [8], the system named is Fusarium graminearum. In kind it is in vivo. As to conditions: corn from treated seeds, 0.025 mg/seed, F. graminearum inoculated.

In brackets after ≈: the same amount, converted by molar mass. Like-named read-outs stand apart in the source and are kept apart here.

Consider `COc1ccc(F)cc1[C@@H](O)Cn1c(=O)n(C(C)(C)C(=O)NC(C)C)c(=O)c2c(C)c(-n3nccn3)sc21` [Compound I-185, (R)-2-(1-(2-(5-fluoro-2-methoxyphenyl)-2-hydroxyethyl)-5-methyl-2,4-dioxo-6-(2H-1,2,3-triazol-2-yl)-1,4-dihydrothieno[2,3-d]pyrimidin-3 (2H)-yl)-N-isopropyl-2-methylpropanamide], for which the IC90 was 0.4 µg/mL (≈ 0.734 µM) with Botrtyis cinerea (Bc); 0.4 µg/mL (≈ 0.734 µM) in assay [1]; 0.4 µg/mL (≈ 0.734 µM) in the assay with Diplodia maydis (Dm); 0.08 µg/mL (≈ 0.147 µM) in assay [2]; 0.08 µg/mL (≈ 0.147 µM) in [3]; no less than 10 µg/mL in assay [4]. Besides, the IC90 in the assay on Rhizoctonia solani (Rs) was 0.08 µg/mL (≈ 0.147 µM); with Septoria tritici (St) it was no less than 50 µg/mL. Also, the “Barley Powdery Mildew Control at a compound concentration of 10 ppm or lower” value in assay [5] is given as “AA (≥85% control of barley powdery mildew)”. In the assay on Sphaerotheca fuliginea, the “Cucumber Powdery Mildew Control at a compound concentration of 10 ppm or lower” value is “AA (≥85% control of cucumber powdery mildew)”. In addition, the “Septoria Leaf Blotch Control at a compound concentration of 25 ppm or lower” value in assay [6] is listed as “AA (≥85% control of wheat septoria leaf blotch)”. Further, the “Wheat Fusarium Head Blight Control at a compound concentration of 25 ppm or lower” value in the assay with Fusarium graminearum [7] is on record as “A (from 70% to 84% control of wheat fusarium head blight)”. Besides, in the assay on Puccinia triticina, the “Wheat Leaf Rust Control at a compound concentration of 10 ppm or lower” value (“Wheat Leaf Rust Control … of 10 ppm or lower” below) is given as “AA (≥85% control of wheat leaf rust)”. Moreover, the “Asian Soybean Rust Control at a compound concentration of 25 ppm or lower” value (“Asian Soybean Rust Control … of 25 ppm or lower” for short) with Phakopsora pachyrhizi is on record as “AA (≥85% control of Asian soybean rust)”. For the same molecule, the “Plant Height” value in the assay on Fusarium graminearum [8] (Table 12) is 45.66 cm.
On to `COc1ccc(F)cc1[C@H](Cn1c(=O)n([C@H](C)C(=O)N(C)C(C)C)c(=O)c2c(C)c(-n3nccn3)sc21)OCCC#N` [Compound I-205, (R)-2-(1-((R)-2-(2-cyanoethoxy)-2-(5-fluoro-2-methoxyphenyl)ethyl)-5-methyl-2,4-dioxo-6-(2H-1,2,3-triazol-2-yl)-1,4-dihydrothieno[2,3-d]pyrimidin-3 (2H)-yl)-N-isopropyl-N-methylpropanamide], for which the IC90 was 0.4 µg/mL (≈ 0.669 µM) in the assay with Botrtyis cinerea (Bc); 0.4 µg/mL (≈ 0.669 µM) in assay [1]; no less than 0.08 µg/mL in the assay on Diplodia maydis (Dm); 0.4 µg/mL (≈ 0.669 µM) in [2]; 0.4 µg/mL (≈ 0.669 µM) in assay [3]; greater than 50 µg/mL in assay [4]. The IC90 is 0.08 µg/mL (≈ 0.134 µM) in the assay with Rhizoctonia solani (Rs) and greater than 50 µg/mL in the assay with Septoria tritici (St). For the same molecule, the “Barley Powdery Mildew Control at a compound concentration of 10 ppm or lower” value in assay [5] is reported as “AA (≥85% control of barley powdery mildew)”. Besides, the “Cucumber Powdery Mildew Control at a compound concentration of 10 ppm or lower” value in the assay on Sphaerotheca fuliginea is on record as “AA (≥85% control of cucumber powdery mildew)”. Moreover, the “Septoria Leaf Blotch Control at a compound concentration of 25 ppm or lower” value in assay [6] is recorded as “AA (≥85% control of wheat septoria leaf blotch)”. Besides, the “Wheat Fusarium Head Blight Control at a compound concentration of 25 ppm or lower” value with Fusarium graminearum [7] was “C (from 25 to 49% control of wheat fusarium head blight)”. Besides, the “Wheat Leaf Rust Control … of 10 ppm or lower” value in the assay on Puccinia triticina was “AA (≥85% control of wheat leaf rust)”. Further, the “Asian Soybean Rust Control … of 25 ppm or lower” value with Phakopsora pachyrhizi is reported as “AA (≥85% control of Asian soybean rust)”. Further, in the assay on Fusarium graminearum [8] (Table 13), the “Plant Height” value was determined as 41.47 cm.
For `CCNC(=O)C(C)(C)n1c(=O)c2c(C)c(-n3nccn3)sc2n(C[C@H](OCCC#N)c2cc(F)ccc2OC)c1=O` [Compound I-206, (R)-2-(1-(2-(2-cyanoethoxy)-2-(5-fluoro-2-methoxyphenyl)ethyl)-5-methyl-2,4-dioxo-6-(2H-1,2,3-triazol-2-yl)-1,4-dihydrothieno[2,3-d]pyrimidin-3 (2H)-yl)-N-ethyl-2-methylpropanamide], the IC90 is 0.4 µg/mL (≈ 0.685 µM) in the assay with Botrtyis cinerea (Bc); 0.4 µg/mL (≈ 0.685 µM) in assay [1]; 0.4 µg/mL (≈ 0.685 µM) with Diplodia maydis (Dm); 0.08 µg/mL (≈ 0.137 µM) in [2]; 0.4 µg/mL (≈ 0.685 µM) in [3]; greater than 50 µg/mL in assay [4]. Further, the IC90 is 0.08 µg/mL (≈ 0.137 µM) with Rhizoctonia solani (Rs) and greater than 50 µg/mL in the assay on Septoria tritici (St). Besides, the “Barley Powdery Mildew Control at a compound concentration of 10 ppm or lower” value in [5] was “AA (≥85% control of barley powdery mildew)”. Moreover, the “Cucumber Powdery Mildew Control at a compound concentration of 10 ppm or lower” value in the assay with Sphaerotheca fuliginea was “AA (≥85% control of cucumber powdery mildew)”. In addition, the “Septoria Leaf Blotch Control at a compound concentration of 25 ppm or lower” value in assay [6] is on record as “AA (≥85% control of wheat septoria leaf blotch)”. In addition, the “Wheat Fusarium Head Blight Control at a compound concentration of 25 ppm or lower” value in the assay on Fusarium graminearum [7] was “B (from 50 to 69% control of wheat fusarium head blight)”. Also, the “Wheat Leaf Rust Control … of 10 ppm or lower” value with Puccinia triticina is “AA (≥85% control of wheat leaf rust)”. In addition, the “Asian Soybean Rust Control … of 25 ppm or lower” value in the assay with Phakopsora pachyrhizi is “AA (≥85% control of Asian soybean rust)”. The “Plant Height” value in the assay with Fusarium graminearum [8] (Table 13) worked out at 42.72 cm.
Consider `COc1ccc(F)cc1[C@H](Cn1c(=O)n([C@H](C)C(=O)NC(C)C)c(=O)c2c(C)c(-n3nccn3)sc21)OCC(C)(C)C#N` [Compound I-253, (R)-2-(1-((R)-2-(2-cyano-2-methylpropoxy)-2-(5-fluoro-2-methoxyphenyl)ethyl)-5-methyl-2,4-dioxo-6-(2H-1,2,3-triazol-2-yl)-1,4-dihydrothieno[2,3-d]pyrimidin-3 (2H)-yl)-N-isopropylpropanamide], for which the IC90 in the assay on Botrtyis cinerea (Bc) was 0.4 µg/mL (≈ 0.654 µM); in assay [1], 0.4 µg/mL (≈ 0.654 µM); in the assay with Diplodia maydis (Dm) it was 0.4 µg/mL (≈ 0.654 µM); in [2], 0.08 µg/mL (≈ 0.131 µM); in assay [3] it was 0.4 µg/mL (≈ 0.654 µM); in [4], no less than 50 µg/mL. Besides, the IC90 with Rhizoctonia solani (Rs) is 0.08 µg/mL (≈ 0.131 µM); in the assay with Septoria tritici (St), no less than 2 µg/mL. Besides, the “Barley Powdery Mildew Control at a compound concentration of 10 ppm or lower” value in assay [5] was “A (from 70% to 84% control of barley powdery mildew)”. For the same molecule, the “Cucumber Powdery Mildew Control at a compound concentration of 10 ppm or lower” value in the assay on Sphaerotheca fuliginea is recorded as “AA (≥85% control of cucumber powdery mildew)”. Also, the “Septoria Leaf Blotch Control at a compound concentration of 25 ppm or lower” value in assay [6] is “AA (≥85% control of wheat septoria leaf blotch)”. In addition, the “Wheat Fusarium Head Blight Control at a compound concentration of 25 ppm or lower” value in the assay with Fusarium graminearum [7] is “B (from 50 to 69% control of wheat fusarium head blight)”. The “Wheat Leaf Rust Control … of 10 ppm or lower” value with Puccinia triticina is reported as “AA (≥85% control of wheat leaf rust)”. For the same molecule, in the assay with Phakopsora pachyrhizi, the “Asian Soybean Rust Control … of 25 ppm or lower” value is listed as “A (from 70% to 84% control of Asian soybean rust)”. Besides, the “Plant Height” value in the assay on Fusarium graminearum [8] (Table 13) is 37.81 cm.
